Results reported in patent US20170334899A1, “AMINO-SUBSTITUTED ISOTHIAZOLES” (Bayer Pharma Aktiengesellschaft, priority 2014, published 2017).

Assays:
CDK2/CycE = target: T1, CDK2/CycE (Homo sapiens, UniProt P24941); assay: CDK2/CycE kinase assay (TR-FRET); format: biochemical; details: avg, read-out: CDK2 avg (IC50 [mol/l])
T1 construct: GST; purchased ProQinase GmbH (Freiburg, Germany); host or cells: insect cells (Sf9)
Procedure, shortened: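 GST-tagged human CDK2 and CycE from Sf9 cells, preincubated 15 min with compound, then 25 min at 22° C. with 10 μM ATP and 0.75 μM biotinylated Rb-derived peptide (final). Phospho-substrate read by TR-FRET (anti-pRB pSer807/pSer811, Eu anti-mouse IgG, streptavidin-XL665), 665/620 nm ratio, normalised to no-inhibitor and no-enzyme controls.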

[1] = target: T2, catalytic domain of human Bub1 (amino acids 704-1085) (Homo sapiens, UniProt O43683); assay: Bub1 kinase assay (TR-FRET); format: biochemical; details: 10 μM ATP, avg, read-out: Bub1 avg (IC50 [mol/l])
T2 construct: catalytic domain of human Bub1 (amino acids 704-1085); His6 (N); made in house; host or cells: insect cells (Hi5)
T2 sequence (O43683 704-1085): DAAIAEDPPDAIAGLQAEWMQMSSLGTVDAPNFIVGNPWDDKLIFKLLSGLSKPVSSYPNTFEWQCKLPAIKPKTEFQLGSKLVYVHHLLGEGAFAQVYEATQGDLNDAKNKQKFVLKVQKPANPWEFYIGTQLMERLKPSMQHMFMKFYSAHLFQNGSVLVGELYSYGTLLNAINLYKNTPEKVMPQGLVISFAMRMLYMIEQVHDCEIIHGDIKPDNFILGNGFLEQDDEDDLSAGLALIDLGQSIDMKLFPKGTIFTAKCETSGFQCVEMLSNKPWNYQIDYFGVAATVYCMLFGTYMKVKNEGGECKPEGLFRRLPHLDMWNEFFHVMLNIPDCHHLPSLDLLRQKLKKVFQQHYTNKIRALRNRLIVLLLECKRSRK
Procedure, shortened: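 Readout is the 665/620 nm TR-FRET ratio from anti-phosphoserine antibody, Eu-labelled anti-mouse IgG and streptavidin-XL665, scaled between no-enzyme and uninhibited controls. Reaction: 1 μM biotinylated peptide, 10 μM ATP, 60 min, 22 °C, after 15 min compound preincubation with His6-Bub1 (704-1085, insect-expressed, ~200 ng/ml).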

IC50 (CDK2/CycE) [µM] | IC50 [1] [µM] | SMILES
> 20 | > 20 | Cc1nsc(Nc2cnc(C(F)(F)F)cn2)c1C(=O)Nc1ccc(F)c(OCC2CCN(CCF)C2)c1 (centres unmarked) [Example 317, N-(4-fluoro-3-{[1-(2-fluoroethyl)pyrrolidin-3-yl]methoxy}phenyl)-3-methyl-5-{[5-(trifluoromethyl)pyrazin-2-yl]amino}-1,2-thiazole-4-carboxamide]
11 | > 20 | Cc1nsc(Nc2cncc(C(F)(F)F)n2)c1C(=O)Nc1ccc(C(=O)NC2CN(CC(F)(F)F)C2)cc1 [Example 280, 3-methyl-N-(4-{[1-(2,2,2-trifluoroethyl)azetidin-3-yl]carbamoyl}phenyl)-5-{[6-(trifluoromethyl)pyrazin-2-yl]amino}-1,2-thiazole-4-carboxamide]
> 20 | > 20 | CCNC(=O)c1cccc(NC(=O)c2c(C)nsc2Nc2ccc(C#N)cn2)c1 [Example 252, 5-[(5-cyanopyridin-2-yl)amino]-N-[3-(ethylcarbamoyl)phenyl]-3-methyl-1,2-thiazole-4-carboxamide]
≥ 20 | ≥ 20 | CCN1CCC(Oc2ccc(NC(=O)c3c(C)nsc3Nc3cc(C#N)ccn3)cn2)CC1 [Example 26, 5-[(4-Cyanopyridin-2-yl)amino]-N-{6-[(1-ethylpiperidin-4-yl)oxy]pyridin-3-yl}-3-methyl-1,2-thiazole-4-carboxamide]
